Experiments:
[1] = test system: primary chicken embryonic fibroblasts (CEFs); experiment: Cell death by trypan blue staining in CEFs; type: cell-based; conditions: 38.7 μM (10 μg/ml), six hours
Experimental: (§1) Primary limb bud cells (PLBCs) were isolated from 60 pooled wing and hindlimb buds of HH stages 23/24 embryos. Fibroblasts were gained from HH stage 34 chicken embryos or from 13.5 d.p.c. mouse embryos. Human embryonic fibroblasts were provided by Matthias Maass (2). Before adding reagents, all cell types were cultured for 16 hours in D-MEM (Gibco) plus 10% fetal calf serum (FCS) and 2% chicken serum. Treatment with thalidomide, phthalimide, recombinant human (rh) BMP4 (300 ng/ml; R&D Systems), juglone (5 μM; Sigma), recombinant mouse Noggin (30, 300, 1000 ng/ml in FIG. 4B; 300 ng/ml in FIGS. 4C and 6A), anti-human-DKK1 antibody (35, 350 and 1000 ng/ml in FIG. 4B; 350 ng/ml in FIGS. 4C and 6A), LiCl (3, 30, 60 mM in FIG. 4B; 30 mM in FIGS. 4C, 6A and 6C) and/or (2Z,3E)-6-Bromoindirubin-3-oxime (BIO, Gsk3-Inhibitor IX; 50, 500, 1000 nM in FIG. 4B; 500 nM in FIG. 6A; 50 and 500 nM in FIG. 6C; Calbiochem) were performed in Optimem1 (Invitrogen) plus 1% FCS. Unless otherwise noted, all treatments with thalidomide and rh-BMP4 and associated controls were done for six hours. Inhibitors were applied once at the beginning of incubation with the exception of LiCl that was added 150 minutes before harvesting the cells for further analyses. Pre-treatment with phenyl-N-t-butylnitrone (PBN; 2 mM; Sigma) was performed for one hour. Incubations with juglone were performed for two hours, if applicable, after a pre-treatment with PBN, Noggin, anti-Dkk1 antibody, LiCl or Gsk3-Inhibitor IX for one hour.
Cell death in PLBCs, CEFs, MEFs and HEFs was detected by staining with trypan blue (0.1% (w/v) in PBS; Sigma) for 90 seconds. Cells were counted in a counting chamber to determine the ratio of dead to live cells.

[2] = test system: chicken embryos; experiment: Thalidomide-induced limb truncations and microphthalmia in chicken embryos; type: in vivo
Experimental: Fertilized eggs were purchased from Deindl GmbH, Rietberg-Varensell. They were incubated at 38° C. in a humidified incubator, windowed after one day and staged according to Hamburger and Hamilton (HH stage). Racemic thalidomide (Celgene), thalidomide enantiomers or phthalimide (Sigma) were dissolved in DMSO at 5 mg/ml and further diluted in PBS. Embryos were exposed to drugs by dropping 15 μg-3 mg thalidomide or phthalimide per kg egg weight (about 1-200 μg per embryo) in 50 μl DMSO/PBS as a single dose at HH stages 0-13 onto the embryo. Thalidomide (50 μg) or phthalimide (50 μg) in 10 μl DMSO was injected into the extra-embryonic blood vessels of HH 19 stage embryos. […] Recombinant Noggin, Dkk1 specific goat IgG (R&D Systems) or serum of non-immunized goats (Sigma) was dissolved in 0.1% BSA/0.01% Fast Green/PBS. Noggin (10 or 100 ng), Dkk1 specific goat IgG (5 or 50 ng) or serum of non-immunized goats (50 ng) was applied to a single embryo at HH stages 17-19 by injecting a 10 μl solution through the extra-embryonic membranes.
The morphology of the limbs was studied in specimens fixed in 5% trichloroacetic acid and stained for cartilage with alcian green as described (3).

[3] = test system: Bmp4 and Dkk1 expression in HEFs; experiment: sqRT-PCR of Bmp4 and Dkk1 expression in HEFs; type: cell-based, human; conditions: 10 μg/ml, six hours
Experimental: as §1
RNA isolation, semi-quantitative RT-PCRs and whole mount in situ hybridizations were performed according to standard protocols that are well known within the art. RNA was isolated using TRIZOL (Gibco BRL) followed by DNAseI digestion. First strand synthesis was carried out with the Expand RT System (Roche) according to the manufacturer's instructions. PCR amplification was carried out primers and conditions within the knowledge of a person having skill in the relevant art. Quantifications were performed using NIH Image 1.62.

[4] = chicken, in vivo, 7 day of incubation

**Q.** What does the source list for `O=C1CCC(N2C(=O)c3ccccc3C2=O)C(=O)N1` (racemic) [thalidomide, 2-(2,6-dioxo-3-piperidyl)isoindole-1,3-dione]?
**A.** induction of PCD in CEFs compared to controls [1]: six-fold; embryonic lethality in comparison to solvent controls ([2]; 750 μg/kg egg weight, HH stages 4/5, first seven days): did not significantly increase embryonic lethality; EC50 for induction of limb and eye defects ([2]; applied at HH stages 4/5): 50 μg/kg egg weight; dose inducing a maximum of limb truncations and microphthalmia ([2]; chicken, in vivo): 750 μg/kg egg weight; other limb malformations (fusion at the level of the metacarpal cartilage, abducted legs), frequency in total ([2]; chicken, in vivo): observed, but at a much lower frequency (in total 4%, data not shown).; embryos showing both limb abnormalities and microphthalmia [2, 4]: about 5%; embryos with uni- or bilateral microphthalmia [2, 4]: 21%; effect of increasing the amount up to 3 mg/kg egg weight ([2]; in vivo): neither influenced the quality nor the quantity of limb truncations or microphthalmia; frequency of limb truncations and microphthalmia on application at later stages ([2]; in vivo): clearly reduced the frequency of limb truncations and microphthalmia; expression of Bmp4 and Dkk1 in HEFs [3]: induced the expression

Source: patent publication US7723301B2, “Pharmaceutical compositions comprising an anti-teratogenic compound and applications of the same” (The Board of Trustees of the University of Arkansas, priority 2007, dated 2010)
